According to paper PMC10974995 (Pathogens, 2024):
In brackets after ≈: the same amount, converted by molar mass. Like-named read-outs stand apart in the source and are kept apart here.

Assays:
boar sperm [1] = conditions: cited from earlier work
rodents = conditions: in vivo; cited from earlier work
[2] = test system: boar sperm and PK-15 cells
[3] = test system: PK-15 (porcine kidney epithelial cells) and/or FFL (feline fetus lung cells); experiment: cells; conditions: Sus scrofa
[4] = test system: differentiated PK-15 cells
boar sperm [5] = experiment: cells
[6] = test system: differentiated PK-15 cells; experiment: cells; conditions: Sus scrofa, PK-15, read-out: Mitochondrial Toxicity 1d (EC50, acceleration of glycolysis and depolarization of mitochondria)
Rat = conditions: po; cited from earlier work
Fish = conditions: cited from earlier work
boar sperm [7] = test system: boar sperm
[8] = test system: PK-15 (porcine kidney epithelial cells) and/or FFL (feline fetus lung cells)
[9] = PK-15, 48 h, read-out: EC50 In Vitro ICP 2d
[10] = 72 h, read-out: EC50 Ex Vivo BSMI 1–3d
[11] = PK-15, read-out: EC50 In Vitro ICP, positive controls, mean of 10 or 11 measurements
[12] = read-out: EC50 Ex Vivo BSMI, positive controls, mean of 10 or 11 measurements

Row | Compound | Toxicity profile of pure toxins and chemicals in the BSMI and ICP assays [2] | EC50 [3, 9] | Mitochondrial toxicity after testing with somatic cells [4] | EC50 (boar sperm [5]; [10]) | EC50 [6] | Toxicity In Vivo LD50 Rat p.o. (Rat) | In Vivo (toxicity to experimental animals), xenobiotic chemicals (Fish) | Toxicity In Vivo LD50 Fish (Fish) | Ex Vivo BSMI 1–3d, toxic (+) / nontoxic (−), xenobiotic chemicals (boar sperm [7]; pig (boar)) | In Vitro ICP 2d, toxic (+) / nontoxic (−), xenobiotic chemicals [8] | EC50 [3, 11] | EC50 (boar sperm [5]; [12]) | In Vivo (toxicity to experimental animals), mycotoxins and fungal metabolites (Rat) | Ex Vivo BSMI 1–3d, toxic (+) / nontoxic (−), microbial metabolites (boar sperm [7]; pig (boar)) | In Vitro ICP 2d, toxic (+) / nontoxic (−), microbial metabolites [8] | further results
1 | CC(C)C[C@H]1OC(=O)[C@H](C(C)C)NC(=O)[C@H](C(C)C)OC(=O)[C@@H](C)NC(=O)[C@@H](CC(C)C)OC(=O)[C@H](C(C)C)NC(=O)[C@H](C(C)C)OC(=O)[C@@H](C)NC(=O)[C@@H](CC(C)C)OC(=O)[C@H](C(C)C)NC(=O)[C@H](C(C)C)OC(=O)[C@@H](C)NC1=O [Cereulide] |  |  |  |  |  |  |  |  |  |  |  |  |  |  |  | Toxicity in sperm motility tests (boar sperm [1]): toxic; Toxicity to rodents (rodents): non-toxic
2 | CCCCCCCCCC[N+](C)(C)CCCCCCCCCC [DDAC, Didecyl- dimethyl- ammonium- chloride] | highly toxic in both assays | 0.5 µg/mL | Mitochondrial toxicity was recorded | 1 µg/mL | 1 µg/mL | 238 mg/kg | + (key: LD50 Fish Inhaled <10 μg mL ^–1 = Toxic in vivo Marked as +.) | 0.5 mg/L | (+) 1 (key: (+): For the xenobiotic chemicals, EC50 values < 10 µg mL^−1 and <20 µg mL^−1 were considered as toxic in the BSMI assay and in the ICP assay, respectively; nontoxic as (−)) | (+) 0.5 (key: (+): For the xenobiotic chemicals, EC50 values < 10 µg mL^−1 and <20 µg mL^−1 were considered as toxic in the BSMI assay and in the ICP assay, respectively; nontoxic as (−)) |  |  |  |  |  | 
3 | CC(C)[C@H]1C(=O)O[C@H](C(C)C)C(=O)N(C)[C@@H](C(C)C)C(=O)O[C@H](C(C)C)C(=O)N(C)[C@@H](C(C)C)C(=O)O[C@H](C(C)C)C(=O)N1C [Enniatin B] |  | 15 µg/mL (≈ 23.4 µM) |  | 0.5 µg/mL (≈ 0.781 µM) | 2 µg/mL (≈ 3.13 µM) | 350 mg/kg |  |  |  |  | 18 µg/mL (≈ 28.1 µM) | 0.6 µg/mL (≈ 0.938 µM) | + (key: LD50 rat p.o. <1000 mg kg ^–1 Classified as Toxic in vivo +.) | (+) 0.5 (key: (+): For the microbial metabolites, EC50 < 5 µg mL^−1 and <10 µg mL^−1 were considered as toxic in the BSMI and ICP assays, respectively; nontoxic as (−)) | (−) 15 | 
4 | C[C@@H]1Cc2c(Cl)cc(C(=O)N[C@@H](Cc3ccccc3)C(=O)O)c(O)c2C(=O)O1 [Ochratoxin A] | not detected in our assays | > 50 µg/mL |  | > 50 µg/mL |  | 20 mg/kg |  |  |  |  |  |  | + (key: LD50 rat p.o. <1000 mg kg ^–1 Classified as Toxic in vivo +.) | (−) >50 | (−) >50 | 
5 | Oc1cc(Cl)ccc1Oc1ccc(Cl)cc1Cl [Triclosan, Triclorooxy-phenylether] |  | 20 µg/mL (≈ 69.1 µM) | Mitochondrial toxicity was recorded | 1 µg/mL (≈ 3.45 µM) | 5 µg/mL (≈ 17.3 µM) | 3700 mg/kg | + (key: LD50 Fish Inhaled <10 μg mL ^–1 = Toxic in vivo Marked as +.) | 0.5 mg/L | (+) 1 (key: (+): For the xenobiotic chemicals, EC50 values < 10 µg mL^−1 and <20 µg mL^−1 were considered as toxic in the BSMI assay and in the ICP assay, respectively; nontoxic as (−)) | 20 (−) | 13 µg/mL (≈ 44.9 µM) | 1 µg/mL (≈ 3.45 µM) |  |  |  | Sperm motility relative to the negative control (boar sperm [7]): < 20%
6 | Alamethicin | toxic in both the BSMI and ICP tests |  |  |  |  | 80 mg/kg |  |  |  |  |  |  | + (key: LD50 rat p.o. <1000 mg kg ^–1 Classified as Toxic in vivo +.) |  | (+) 6 (key: (+): For the microbial metabolites, EC50 < 5 µg mL^−1 and <10 µg mL^−1 were considered as toxic in the BSMI and ICP assays, respectively; nontoxic as (−)) | EC50 Ex Vivo BSMI 1–3d (boar sperm [7]): (+) 0.5 μg mL^–1; Ex Vivo BSMI 1–3d, toxic (+) / nontoxic (−), microbial metabolites (boar sperm [7]): (+) 0.5 (key: (+): For the microbial metabolites, EC50 < 5 µg mL^−1 and <10 µg mL^−1 were considered as toxic in the BSMI and ICP assays, respectively; nontoxic as (−)); EC50 In Vitro ICP 2d [8]: (+) 6 μg mL^–1
